Values of other authors in article PMC12737022, “Evaluations of Sex Differences in Dosimetry in Rats Following Perfluorohexanesulfonamide (PFHxSA) Oral Exposure” (Toxics, 2025).

Legend:
[1] = parameters: method as in PMID 40710967; details: SD rats following PFHxSA administration; cited from earlier work
[2] = parameters: method as in PMID 31078680; details: cited from earlier work; for Liver partitioning values: male rats
[3] = parameters: method as in PMID 37756184; details: bariatric surgery patients; cited from earlier work

Q: For `O=C(O)C1OC(NS(=O)(=O)C(F)(F)C(F)(F)C(F)(F)C(F)(F)C(F)(F)C(F)(F)F)C(O)C(O)C1O` (stereo not drawn) [PFHxSA-glucuronide], which “Share of the PFAS detected following dosing” value [1] is on record?
A: The value was “less than 3%”.

Q: For `O=C(O)C(F)(F)C(F)(F)C(F)(F)C(F)(F)C(F)(F)C(F)(F)C(F)(F)F` [PFOA, perfluorooctanoic acid, reference compound], which Liver partitioning values [2] is on record?
A: The Liver partitioning values was 1.5 to 10.9.

Q: What about the “Human liver/plasma partitioning Kp” value [3] of the same compound?
A: Its value is 0.26.

Q: With `O=S(O)C(F)(F)C(F)(F)C(F)(F)C(F)(F)C(F)(F)C(F)(F)F` [perfluorohexanesulfinic acid] as the compound, how does the “Share of the PFAS detected following dosing” value [1] read?
A: Its value is “less than 3%”.

Q: With `O=S(=O)(O)C(F)(F)C(F)(F)C(F)(F)C(F)(F)C(F)(F)C(F)(F)C(F)(F)C(F)(F)F` [PFOS, perflurooctanesulfonic acid] as the compound, how does the Liver partitioning values [2] read?
A: The Liver partitioning values was 1.5 to 10.9.

Q: Which “Liver partitioning summary values” ([2]; across both sexes) does the source give for `O=C(O)C(F)(F)C(F)(F)C(F)(F)F` [PFBA] here?
A: The value was 0.16–0.44.
